From patent publication US20250296916A1, “BICYCLIC PIPERAZINONES AND THERAPEUTIC USES THEREOF” (Cytokinetics, Inc., priority 2022, published 2025)

System: rabbit skeletal myofibrils (approximately 90% fast fibers)
Assay: Activation of fast skeletal myofibrils (PUMA coupled-enzyme ATPase assay)
Format: biochemical
Conditions: concentration at which the compound increased the enzymatic activity by 40%; calcium at pCa25; PM12 buffer pH 6.8
Description: Preparation of fast skeletal myofibrils: Rabbit skeletal myofibrils were prepared based upon the method of Herrmann et al. (Biochem. 32 (28): 7255-7263 (1993). Myofibrils were prepared from rabbit psoas muscle purchased from Pel-Freez Biologicals (Arkansas) within 2 days of ordering, stored on ice. Minced muscle was homogenized in 10 volumes of ice-cold “standard” buffer (50 mM Tris, pH 7.4, 0.1 M KOAc, 5 mM KCl, 2 mM dithiothreitol (DTT), 0.2 mM phenylmethylsulfonyl fluoride (PMSF), 10 μM leupeptin, 5 μM pepstatin, and 0.5 mM sodium azide) containing 5 mM ethylenediaminetetraacetic acid (EDTA) and 0.5% Triton X-100 using an Omni-Macro homogenizer. Myofibrils were recovered by low speed centrifugation (3000 rpm for 10 minutes) and washed 2 times in the Triton X-100 containing buffer to ensure removal of cellular membrane. Following the Triton washes, myofibrils were washed 3 times in “standard” buffer containing 2 mM magnesium acetate. A final wash in assay buffer (12 mM piperazine-1,4-bis(2-ethanesulfonic acid) (PIPES), pH 6.8, 60 mM KCl, 1 mM DTT) was performed and brought to 10% sucrose for flash freezing in liquid nitrogen and storage at −80° C.
Activation of Fast Skeletal Myofibrils: Fast fiber activators were identified by measuring the enzymatic activity of muscle myofibril preparations using the proprietary PUMA (trademark) (see, e.g., U.S. Pat. Nos. 6,410,254, 6,743,599, 7,202,051, and 7,378,254) assay system. Myofibril preparations consisted of rabbit skeletal muscle (approximately 90% fast fibers) that had been mechanically homogenized and washed with a detergent (Triton X-100) to remove cellular membranes. This preparation retained all of the sarcomeric components in a native conformation and the enzymatic activity was still regulated by calcium. Compounds were tested using a myofibril suspension and a level of calcium sufficient to increase enzymatic activity of the myofibrils to 25% of their maximal rate (termed pCa25). Enzymatic activity was tracked via a pyruvate kinase and lactate dehydrogenase-coupled enzyme system. This assay regenerates myosin-produced ADP into ATP by oxidizing NADH, producing an absorbance change at 340 nm. The buffering system was 12 mM PIPES, 2 mM MgCl2, 1 mM DTT at pH 6.8 (PM12 buffer). […] In Table 3, “Example Compound” refers to the compound labeled with the same number in Table 2.

How did the AC1.4 turn out when `CCC[C@H]1C(=O)Nc2ccccc2N1C(=O)N[C@@H](C)c1ccccc1` [Compound 50, (S)-3-oxo-N-((S)-1-phenylethyl)-2-propyl-3,4-dihydroquinoxaline-1(2H)-carboxamide] was run?
Its AC1.4 is 2.36 µM.

How did the AC1.4 turn out when `CC[C@H](C)[C@H]1C(=O)Nc2ccccc2N1C(=O)N1CC[C@H](CO)C1` [Compound 107, (S)-3-((S)-sec-butyl)-4-((S)-3-(hydroxymethyl)pyrrolidine-1-carbonyl)-3,4-dihydroquinoxalin-2(1H)-one] was run?
The AC1.4 was 0.44 µM.

Which AC1.4 does the source give for `CCC[C@H]1C(=O)Nc2ccccc2N1C(=O)c1cnn(CCO)c1` [Compound 67, (S)-4-(1-(2-hydroxyethyl)-1H-pyrazole-4-carbonyl)-3-propyl-3,4-dihydroquinoxalin-2(1H)-one] here?
The AC1.4 was 1.31 µM.

With `CCC[C@H]1C(=O)Nc2ccccc2N1C(=O)c1cccnc1` [Compound 12, (S)-4-nicotinoyl-3-propyl-3,4-dihydroquinoxalin-2(1H)-one] as the molecule, how does the AC1.4 read?
Its AC1.4 is 1.55 µM.

Which AC1.4 does the source give for `CC[C@H](C)[C@H]1C(=O)Nc2ccccc2N1C(=O)NCCO` [Compound 105, (S)-2-((S)-sec-butyl)-N-(2-hydroxyethyl)-3-oxo-3,4-dihydroquinoxaline-1(2H)-carboxamide] here?
Its AC1.4 is 2.23 µM.

`CCC[C@H]1C(=O)Nc2ccccc2N1C(=O)c1cncc(Cl)c1` [Compound 20, (S)-4-(5-chloronicotinoyl)-3-propyl-3,4-dihydroquinoxalin-2(1H)-one] was tested. Which AC1.4 did it give?
Its AC1.4 is 1.52 µM.

For `CCC[C@H]1C(=O)Nc2ccccc2N1C(=O)c1ccc(N(C)C)nc1` [Compound 28, (S)-4-(6-(dimethylamino)nicotinoyl)-3-propyl-3,4-dihydroquinoxalin-2(1H)-one], which AC1.4 is on record?
The AC1.4 was 1.42 µM.

Which AC1.4 does the source give for `CC[C@H](C)[C@H]1C(=O)Nc2ccccc2N1C(=O)c1cn[nH]c1` [Compound 72, (S)-3-((S)-sec-butyl)-4-(1H-pyrazole-4-carbonyl)-3,4-dihydroquinoxalin-2(1H)-one] here?
The AC1.4 was 0.07 µM.

With `CCC[C@H]1C(=O)Nc2ccccc2N1C(=O)Nc1ccc(C)nc1` [Compound 8, (S)-N-(6-methylpyridin-3-yl)-3-oxo-2-propyl-3,4-dihydroquinoxaline-1(2H)-carboxamide] as the molecule, how does the AC1.4 read?
The AC1.4 was 2.73 µM.

For `CC[C@H](C)[C@H]1C(=O)Nc2cnccc2N1C(=O)c1ccc(=O)n(C)c1` [Compound 91, (S)-2-((S)-sec-butyl)-1-(1-methyl-6-oxo-1,6-dihydropyridine-3-carbonyl)-1,4-dihydropyrido[3,4-b]pyrazin-3(2H)-one], which AC1.4 is on record?
The AC1.4 was 0.72 µM.

Which AC1.4 does the source give for `CC[C@H](C)[C@H]1C(=O)Nc2cnccc2N1C(=O)c1ccc(=O)[nH]c1` [Compound 90, (S)-2-((S)-sec-butyl)-1-(6-oxo-1,6-dihydropyridine-3-carbonyl)-1,4-dihydropyrido[3,4-b]pyrazin-3(2H)-one] here?
Its AC1.4 is 0.71 µM.

How did the AC1.4 turn out when `CCC[C@H]1C(=O)Nc2ccc(Cl)cc2N1C(=O)c1ccc(Cl)nc1` [Compound 2, (S)-6-chloro-4-(6-chloronicotinoyl)-3-propyl-3,4-dihydroquinoxalin-2(1H)-one] was run?
Its AC1.4 is 0.71 µM.

How did the AC1.4 turn out when `CCC[C@H]1C(=O)Nc2cccc(Br)c2N1C(=O)c1ccc(Cl)nc1` [Compound 4, (S)-5-bromo-4-(6-chloronicotinoyl)-3-propyl-3,4-dihydroquinoxalin-2(1H)-one] was run?
Its AC1.4 is 0.72 µM.

How did the AC1.4 turn out when `CCC[C@H]1C(=O)Nc2ccccc2N1C(=O)c1ccc(N(C)C2CC2)nc1` [Compound 37, (S)-4-(6-(cyclopropyl(methyl)amino)nicotinoyl)-3-propyl-3,4-dihydroquinoxalin-2(1H)-one] was run?
Its AC1.4 is 0.58 µM.

For `CC(C)[C@H]1C(=O)Nc2ccccc2N1C(=O)c1cnn(C2CC2)c1` [Compound 84, (S)-4-(1-cyclopropyl-1H-pyrazole-4-carbonyl)-3-isopropyl-3,4-dihydroquinoxalin-2(1H)-one], which AC1.4 is on record?
Its AC1.4 is 0.29 µM.

With `CC(C)[C@H]1C(=O)Nc2ccccc2N1C(=O)c1cn[nH]c1` [Compound 86, (S)-3-isopropyl-4-(1H-pyrazole-4-carbonyl)-3,4-dihydroquinoxalin-2(1H)-one] as the molecule, how does the AC1.4 read?
Its AC1.4 is 0.2 µM.

With `CCC[C@H]1C(=O)Nc2ccccc2N1C(=O)Nc1cnn(C)c1` [Compound 59, (S)-N-(1-methyl-1H-pyrazol-4-yl)-3-oxo-2-propyl-3,4-dihydroquinoxaline-1(2H)-carboxamide] as the molecule, how does the AC1.4 read?
The AC1.4 was 1.96 µM.

How did the AC1.4 turn out when `CCC[C@H]1C(=O)Nc2ccccc2N1C(=O)c1cncc(C)c1` [Compound 16, (S)-4-(5-methylnicotinoyl)-3-propyl-3,4-dihydroquinoxalin-2(1H)-one] was run?
Its AC1.4 is 1.41 µM.

For `CC[C@H](C)[C@H]1C(=O)Nc2ccccc2N1C(=O)c1cnn(CC(N)=O)c1` [Compound 80, 2-(4-((S)-2-((S)-sec-butyl)-3-oxo-1,2,3,4-tetrahydroquinoxaline-1-carbonyl)-1H-pyrazol-1-yl)acetamide], which AC1.4 is on record?
The AC1.4 was 0.63 µM.

For `CC[C@H](C)[C@H]1C(=O)Nc2ccccc2N1C(=O)N1CC[C@@H](CO)C1` [Compound 108, (S)-3-((S)-sec-butyl)-4-((R)-3-(hydroxymethyl)pyrrolidine-1-carbonyl)-3,4-dihydroquinoxalin-2(1H)-one], which AC1.4 is on record?
Its AC1.4 is 2.77 µM.

With `CCC[C@H]1C(=O)Nc2ccccc2N1C(=O)Nc1cccc(F)c1` [Compound 57, (S)-N-(3-fluorophenyl)-3-oxo-2-propyl-3,4-dihydroquinoxaline-1(2H)-carboxamide] as the molecule, how does the AC1.4 read?
The AC1.4 was 0.24 µM.

How did the AC1.4 turn out when `CCNC(=O)N1c2ccccc2NC(=O)[C@@H]1[C@@H](C)CC` [Compound 103, (S)-2-((S)-sec-butyl)-N-ethyl-3-oxo-3,4-dihydroquinoxaline-1(2H)-carboxamide] was run?
Its AC1.4 is 0.78 µM.

Which AC1.4 does the source give for `CCC[C@H]1C(=O)Nc2ccccc2N1C(=O)c1ccc(C)nc1` [Compound 3, (S)-4-(6-methylnicotinoyl)-3-propyl-3,4-dihydroquinoxalin-2(1H)-one] here?
Its AC1.4 is 0.77 µM.

How did the AC1.4 turn out when `CCC[C@H]1C(=O)Nc2ccccc2N1C(=O)c1ccncc1` [Compound 11, (S)-4-isonicotinoyl-3-propyl-3,4-dihydroquinoxalin-2(1H)-one] was run?
The AC1.4 was 0.97 µM.

`CC[C@H](C)[C@H]1C(=O)Nc2ccc(F)cc2N1C(N)=O` [Compound 113, (S)-2-((S)-sec-butyl)-7-fluoro-3-oxo-3,4-dihydroquinoxaline-1(2H)-carboxamide] was tested. Which AC1.4 did it give?
Its AC1.4 is 2.01 µM.

`CC(C)[C@H]1C(=O)Nc2ccccc2N1C(=O)c1ccc(N)nc1` [Compound 82, (S)-4-(6-aminonicotinoyl)-3-isopropyl-3,4-dihydroquinoxalin-2(1H)-one] was tested. Which AC1.4 did it give?
The AC1.4 was 0.26 µM.

For `CC[C@H](C)[C@H]1C(=O)Nc2ccccc2N1C(=O)N(C)CCO` [Compound 131, (S)-2-((S)-sec-butyl)-N-(2-hydroxyethyl)-N-methyl-3-oxo-3,4-dihydroquinoxaline-1(2H)-carboxamide], which AC1.4 is on record?
Its AC1.4 is 2.15 µM.

How did the AC1.4 turn out when `CCC[C@H]1C(=O)Nc2ccccc2N1C(=O)c1ccc(N)nc1` [Compound 27, (S)-4-(6-aminonicotinoyl)-3-propyl-3,4-dihydroquinoxalin-2(1H)-one] was run?
The AC1.4 was 0.76 µM.

For `CC[C@H](C)[C@H]1C(=O)Nc2ccccc2N1C(=O)NC1CCN(CCO)CC1` [Compound 130, (S)-2-((S)-sec-butyl)-N-(1-(2-hydroxyethyl)piperidin-4-yl)-3-oxo-3,4-dihydroquinoxaline-1(2H)-carboxamide], which AC1.4 is on record?
Its AC1.4 is 2.13 µM.

How did the AC1.4 turn out when `CC[C@H](C)[C@H]1C(=O)Nc2ccccc2N1C(=O)c1ccc(N)nc1` [Compound 74, (S)-4-(6-aminonicotinoyl)-3-((S)-sec-butyl)-3,4-dihydroquinoxalin-2(1H)-one] was run?
The AC1.4 was 0.08 µM.

`CCC[C@H]1C(=O)Nc2ccccc2N1C(=O)c1ccc(OC(F)(F)F)nc1` [Compound 25, (S)-3-propyl-4-(6-(trifluoromethoxy)nicotinoyl)-3,4-dihydroquinoxalin-2(1H)-one] was tested. Which AC1.4 did it give?
The AC1.4 was 2.34 µM.

Which AC1.4 does the source give for `CCC[C@H]1C(=O)Nc2ccccc2N1C(=O)Nc1ccccc1OC` [Compound 53, (S)-N-(2-methoxyphenyl)-3-oxo-2-propyl-3,4-dihydroquinoxaline-1(2H)-carboxamide] here?
The AC1.4 was 0.55 µM.

For `CC[C@H](C)[C@H]1C(=O)Nc2ccccc2N1C(=O)N[C@H]1CCNC1` [Compound 126, (S)-2-((S)-sec-butyl)-3-oxo-N-((S)-pyrrolidin-3-yl)-3,4-dihydroquinoxaline-1(2H)-carboxamide], which AC1.4 is on record?
Its AC1.4 is 1.53 µM.

For `CC[C@H](C)[C@H]1C(=O)Nc2ccccc2N1C(=O)NC` [Compound 102, (S)-2-((S)-sec-butyl)-N-methyl-3-oxo-3,4-dihydroquinoxaline-1(2H)-carboxamide], which AC1.4 is on record?
Its AC1.4 is 0.94 µM.

For `CCC[C@H]1C(=O)Nc2ccccc2N1C(=O)c1cnn(C2CCC2)c1` [Compound 32, (S)-4-(1-cyclobutyl-1H-pyrazole-4-carbonyl)-3-propyl-3,4-dihydroquinoxalin-2(1H)-one], which AC1.4 is on record?
The AC1.4 was 0.71 µM.
